Each compound was assayed on Cell-based prion protein 5' UTR reporter, plate reader (assay: prion protein 5' UTR mRNA inhibitors – cell-based, plate reader, cherry-picked samples, dose response (AID 504539)).

Row | SMILES | AC50 [nM]
1 | COc1ccc(/C=C2\SC(=S)N(CCCC(=O)NNC(=O)c3ccccc3O)C2=O)cc1 | 630
2 | CC(C)(O)/C=C/C(=O)C(C)(O)C1C(O)CC2(C)C3CC=C4C(C=C(O)C(=O)C4(C)C)C3(C)C(=O)CC12C (configuration not stated) | 104
3 | COC(=O)Cc1ccc(NC(=O)c2ccc(C(C)(C)C)cc2)cc1 | 414
4 | CCOC(=O)C(C)Oc1cccc2c(=O)n(CC(=O)NCc3ccccc3)ccc12 (configuration not stated) | 919
5 | COc1ccc(-c2nsc3c(N4CCCCC4C)ncnc23)cc1 (configuration not stated) | 51
6 | C(=NN1CCCCCC1)c1ccc2ccccc2n1 | < 38
7 | CN=c1scc(-c2ccccc2F)n1/N=C/c1ccc[nH]1 | < 38
8 | O=C(O)c1cccc(-c2noc(-c3cccc(Cl)c3)n2)c1 | 153
9 | CC(C)CCCCCCCCCCCCC(=O)NCC(=O)NC1C(C)OC(Nc2ncnc3nc[nH]c23)C(O)C1O (configuration not stated) | 73
10 | Cc1cc(C)c(C#N)c(SCc2nnc(-c3ccccc3)o2)n1 | 1990
11 | CC(=O)OC1C2(CC3N4C(=O)C5(CO)SSC4(CC31O)C(=O)N5C)OC(C)C(C)(C)C2=O (configuration not stated) | 295
12 | Cc1ccc(-c2nc(-c3ccccn3)no2)cc1 | 140
13 | CCN(CCCl)c1cc(CN(C)C)cc(NC(=O)c2ccc(C(=O)Nc3cc(CN(C)C)cc(N(CC)CCCl)c3)cc2)c1 | 472
14 | COc1cc(-c2noc(C)c2/C=C/c2cccc([N+](=O)[O-])c2)cc(OC)c1OC | 2540
15 | COC1C=CC=C(C)C(=O)NC2=CC(=O)C(N)=C(CC(C)CC(OC)C(O)C(C)C=C(C)C1OC(N)=O)C2=O (configuration not stated) | < 38
16 | CC1CCc2c(sc(NC(=O)CSc3ncn[nH]3)c2C#N)C1 (configuration not stated) | 257
17 | COCCCN=C1NN=C(c2cc(C)n(Cc3ccco3)c2C)CS1 | 1130
18 | C[C@H]1CCC/C=C/[C@@H]2C[C@H](O)C[C@H]2[C@H](O)[C@H](S(=O)c2ccc(O)cc2)CC(=O)O1 (some centres not stated) | 182
19 | Cc1cc(C(=O)COC(=O)c2ccccc2Br)c(C)n1CC1CCCO1 (configuration not stated) | 90
20 | CCC1CN2CCc3cc(OC)c(OC)cc3C2CC1CC1NCCc2c1[nH]c1ccc(O)cc21 (configuration not stated) | 216
21 | Cc1nc(SCC(=O)Nc2nc3ccccc3s2)c(C#N)c(C)c1C | < 38

Row | SMILES | AC50 [nM]
22 | COc1ccccc1N1CCN(C(=O)c2cc(=O)c3cc(C)cc(C)c3o2)CC1 | 248
23 | Cc1cc(C(=O)CN2C(=O)c3ccccc3S2(=O)=O)c(C)n1C(C)C | 2160
24 | CCc1ccc(-c2cc(C(=O)Nn3cnnc3)c3ccccc3n2)cc1 | 510
25 | COc1cccc2c1C(=O)c1c(O)c3c(c(O)c1C2=O)C[C@@](O)(C(=O)CO)C[C@@H]3O[C@H]1C[C@H](N)[C@H](O)[C@H](C)O1 | 650
26 | Cc1ccc2nc(NC(=O)c3ccccn3)sc2c1 | 220
27 | Cc1cc(C)c2c(N)c(C(=O)Nc3ncc(C)s3)sc2n1 | 388
28 | Cc1[nH]nc2ccc(-c3cncc(OC[C@@H](N)Cc4c[nH]c5ccccc45)c3)cc12 | 335
29 | Cc1cc(NC(=O)CSc2nc(-c3ccco3)cc(C(F)(F)F)n2)no1 | 560
30 | Cc1ccc(-c2cc(C(=O)N/N=C/c3c(C)nn(-c4ccccc4)c3C)[nH]n2)cc1 | 3000
31 | Fc1ccc(-n2nnc(-c3cnc4ccccc4c3)n2)cc1 | 1040
32 | CCOc1ccc(NC(=O)Nc2cccc(C(=O)O)c2)cc1 | 136
33 | CC(=O)OC1CC2(O)C3CCC4CC(O)CCC4(C)C3CCC2(C)C1C1=CC(=O)OC1 (configuration not stated) | 92
34 | COc1ccc(C(=O)Nc2nc3ccccc3s2)c(OC)c1 | < 38
35 | O=C(Nc1ccc(N2CCCCC2)cc1)c1ccccn1 | 273
36 | Cc1csc(NC(=O)CCc2c(C)nc3cc(-c4ccc(Cl)cc4)nn3c2C)n1 | 1160
37 | COc1ccc(/C=N/NC(=O)c2cc3c(OC)ccc(OC)c3[nH]2)cc1O | 1340
38 | O=C(Nc1cc2ccccc2oc1=O)c1ccccc1 | 696
39 | CCc1ccn2cc(-c3cc(-c4ccccc4)no3)nc2c1 | 558
40 | COc1cc2c(c(OC)c1O)-c1ccc(OC)c(=O)cc1C(NC(=O)C(F)(F)F)CC2 (configuration not stated) | 140
41 | Cc1cc(C)c(S(=O)(=O)Nc2ccc3c4c(cccc24)CC3)c(C)c1 | 1900
42 | CCCCN1C=CC(=C2C(=O)c3ccccc3C2=O)C=C1 | 248

From PubChem BioAssay AID504539 (Broad Institute, 2011)
